The values that follow are results of earlier work, collected in paper PMC6272651, “Novel Orally Active Analgesic and Anti-Inflammatory Cyclohexyl-N-Acylhydrazone Derivatives” (Molecules, 2015).

This series concerns the target T1, adenosine receptor, subtype A2A (Rattus norvegicus, UniProt P30543).
T1 construct: gene Adora2a
Kind of series: radioligand displacement of [3H]CGS21680 ([…]) from rat A2A receptors. The settings on record: read-out: Binding A2a / % of inhibition ^a.

T1 sequence (P30543 whole entry): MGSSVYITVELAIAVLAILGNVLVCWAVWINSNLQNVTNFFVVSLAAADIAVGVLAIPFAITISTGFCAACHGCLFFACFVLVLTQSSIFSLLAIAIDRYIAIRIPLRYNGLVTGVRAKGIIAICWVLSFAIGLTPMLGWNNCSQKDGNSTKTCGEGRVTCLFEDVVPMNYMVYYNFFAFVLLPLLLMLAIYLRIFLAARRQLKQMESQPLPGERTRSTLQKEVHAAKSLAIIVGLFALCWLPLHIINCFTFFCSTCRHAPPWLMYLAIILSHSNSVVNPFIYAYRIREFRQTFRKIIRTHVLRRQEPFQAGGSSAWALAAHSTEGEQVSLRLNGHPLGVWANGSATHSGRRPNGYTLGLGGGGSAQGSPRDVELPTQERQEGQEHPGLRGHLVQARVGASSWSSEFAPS

Regarding `O=C(N/N=C/c1cccs1)c1ccc2c(c1)OCO2` [compound 8, (E)-N'-((thiophen-2-yl)methylene)benzo[d][1,3]dioxole-5-carbohydrazide], the Ki is 8.2 µM.
